Values of other authors in patent publication US10822400B2, “Dynamin 2 inhibitor for the treatment of Duchenne's muscular dystrophy” (UNIVERSITE DE STRASBOURG, priority 2015, dated 2020).
Values belong to the molecule of their own block, whether it stands above or below them.

Tests used:
dynamin 2 = target: T1, dynamin 2 (Homo sapiens, UniProt P50570); details: read-out: IC50 for inhibition of dynamin 2 (dynamin II)
T1 sequence (P50570 1-870): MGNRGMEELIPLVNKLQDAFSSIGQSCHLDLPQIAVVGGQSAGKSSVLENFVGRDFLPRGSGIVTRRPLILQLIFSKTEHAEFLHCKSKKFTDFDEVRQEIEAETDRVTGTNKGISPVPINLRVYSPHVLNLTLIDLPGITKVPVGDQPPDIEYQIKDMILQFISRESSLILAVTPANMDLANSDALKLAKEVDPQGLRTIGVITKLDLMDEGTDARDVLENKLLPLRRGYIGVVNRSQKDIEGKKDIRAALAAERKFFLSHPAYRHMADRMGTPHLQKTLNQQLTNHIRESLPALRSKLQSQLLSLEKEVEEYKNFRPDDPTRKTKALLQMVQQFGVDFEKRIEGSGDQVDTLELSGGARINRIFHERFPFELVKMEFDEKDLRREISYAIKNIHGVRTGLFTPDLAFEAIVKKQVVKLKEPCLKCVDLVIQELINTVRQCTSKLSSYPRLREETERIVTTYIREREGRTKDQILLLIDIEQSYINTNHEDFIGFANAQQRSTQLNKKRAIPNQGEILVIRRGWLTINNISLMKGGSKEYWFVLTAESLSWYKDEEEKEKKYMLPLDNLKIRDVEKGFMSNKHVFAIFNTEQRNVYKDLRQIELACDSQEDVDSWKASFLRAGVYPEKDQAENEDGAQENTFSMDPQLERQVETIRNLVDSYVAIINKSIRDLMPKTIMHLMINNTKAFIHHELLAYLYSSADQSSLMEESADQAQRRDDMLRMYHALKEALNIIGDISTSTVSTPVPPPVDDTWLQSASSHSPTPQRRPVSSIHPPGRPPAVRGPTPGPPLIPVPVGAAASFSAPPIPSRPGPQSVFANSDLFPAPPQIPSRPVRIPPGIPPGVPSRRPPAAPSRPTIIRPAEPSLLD

[1] = target: receptor-mediated and synaptic vesicle endocytosis; details: read-out: IC50 for inhibition of receptor-mediated and synaptic vesicle endocytosis
mitochondrial division = details: read-out: IC50 as mitochondrial division inhibitor

IC50 (dynamin 2): 2600 nM
Structure (SMILES): O=C(NN=Cc1cc(O)c(O)cc1O)c1cc2ccccc2cc1O [Hydroxy-Dynasore, 3-Hydroxy-N′-[(2,4,5-trihydroxyphenyl)methylidene]naphthalene-2-carbohydrazide]

IC50 [1]: 2200 nM
Structure (SMILES): CCCCCCCCCCCCCC[N+](C)(C)C [MiTMAB, Tetradecyltrimethylammonium bromide]

Structure (SMILES): COc1cc(-n2c(S)nc3ccccc3c2=O)c(Cl)cc1Cl [M-divi 1, 3-(2,4-Dichloro-5-methoxyphenyl)-2-sulfanylquinazolin-4(3H)-one]
IC50 (mitochondrial division): 10000 nM
